Laboratory results: patent publication US7481993B2, “Chelators for radioactively labeled conjugates comprising a stabilizing sidechain” (Schering AG, priority 2005, dated 2009)
One block for each substance: values may come before it.

Legend:
[1] = HPLC radiochemical purity (RCP) stability of ^99mTc radiolabeled somatostatin peptides; assay type: physicochemical
Description: Lyophilized kit “placebo” vials were prepared containing 5 mg sodium glucoheptonate dihydrate, 100 μg edetate disodium dihydrate, and either 50 μg (^99mTc placebo) or 1000 μg (^188Re placebo) stannous chloride dihydrate. The formulations were adjusted to pH 7.4 prior to lyophilization.
(§1) For the ^99mTc radiolabeling, a peptide as the TFA salt was dissolved in saline at 1 mg/mL and 100 μg (100 μL) was added to a ^99mTc placebo vial. The vial was reconstituted with 0.9 mL technetium ^99mTc sodium pertechnetate containing approximately 20 mCi and saline such that the final preparation volume was 1.1 mL. The vial was heated in a boiling water bath for 10 minutes and cooled at room temperature for 10 minutes.
(§2) The radiochemical purity (RCP) of the ^99mTc or ^188Re peptides was measured by gradient reversed phase HPLC using a Eurosphere-100 C18 HPLC column and 0.1% TFA mobile phases moderated with acetonitrile. Radioactive components were detected in the HPLC system using an in-line radiometric detector. Under the gradient conditions employed radiolabeled impurities (for example: ^99mTc glucoheptonate, ^99mTc edetate, and ^99mTc pertechnetate) eluted early (between 1 and 4 minutes), while the radiolabeled peptides eluted much later (between 8 and 20 minutes). In general, two isomeric radiometal complexes were observed, and the HPLC RCP was measured as the sum of the percent areas of the peaks corresponding to the two complexes. Radiochemical purity results for each of compounds are summarized in the examples that follow.
Somatostatin peptides were prepared with varying sidechains in the chelator portion of the compounds as described in FIG. 2. The sidechains varied in length from 0 to 5 atoms. These peptides have an amine-diamide-thiol chelator of the (β)Dap-N^2-Cys type (N^2=any amino acid). Each of the peptides were radiolabeled and monitored for HPLC stability out to 9 hours according the procedures described in Example 3.
Analogs to a commercial lung cancer imaging radiopharmaceutical (NeoTect®) were prepared to investigate the influence of the stabilizing sidechain (D)-CH2CH2CH2NH2 as described in FIG. 3. These peptides have an amine-diamide-thiol chelator of the (β)Dap-N^2-Cys type (N^2=any amino acid). The compound with N^2=Lys (sidechain=(L)-CH2CH2—CH2CH2NH2) is the peptide in the commercial radiopharmaceutical product. Each of the peptides were radiolabeled and monitored for HPLC stability out to 18 hours according to the procedures described in Example 3.

[2] = Cysteine challenge stability of ^99mTc chelator peptides; assay type: physicochemical
Description: as §1, §2
To ^99mTc radiolabelled peptide preparations described in Example 3 was added 150 μg of cysteine (approximately a 7-fold molar excess over peptide), and the preparations were stored at room temperature and monitored by HPLC for up to 12 hours. The amount of ^99mTc cysteine formed over time was noted. The initial HPLC analysis was started within 5 minutes of adding cysteine. In all cysteine challenge studies, a chelator compound containing a stabilizing sidechain was screened vs. the corresponding control chelator compound containing no sidechain. The relative amount of ^99mTc cysteine formed over time correlates inversely with the stability of the chelator (ie. less ^99mTc cysteine indicates higher chelator stability).
Several model chelator peptides were prepared with an N^1—N^2-Cys (N^1, N^2=independently any amino acid) amino acid sequence capable of complexing technetium as a triamide thiol chelator. Various stabilizing sidechains were substituted into the N^1—N^2-Cys chelator in two positions R1 and R2 as depicted in FIG. 4. The compounds were screened in the cysteine challenge experiment described in Example 4. Several experiments were conducted where 1-2 chelators were compared directly to a control chelator containing no stabilizing sidechain (compound GoC1 was also analyzed alone in a further study). Results in Table 5 represent % Peptide complexed to ^99mTc (ie. 100%−the amount of ^99mTc cysteine) vs. time.
Several model chelator peptides were prepared with an (β)Dap-N^2-Cys (N^2=any amino acid) amino acid sequence capable of complexing technetium as an amine diamide thiol chelator. This chelator is the chelator in the somatostatin peptides that were evaluated in Examples 5 and 6. Various stabilizing sidechains were substituted into the (β)Dap-N^2-Cys chelator in two positions R3 and R4 as depicted in FIG. 5. The compounds were screened in the cysteine challenge experiment described in Example 4. Several experiments were conducted where 1-2 chelators were compared directly to a control chelator containing no stabilizing sidechain. Results in Table 6 are the same as described in Example 7.
Two model chelator peptides were prepared with a ma-N^1—N^2 (Ma=mercaptoacetyl; N^1, N^2=independently any amino acid) amino acid sequence capable of complexing technetium as a triamide thiol chelator. This chelator has the thiol donor group at the N-terminus of the peptide. A stabilizing sidechain was substituted into the ma-N^1—N^2 chelator in position R5 as depicted in FIG. 6. The compounds were radiolabeled according to Example 3 with the exception that additional NaOH was added to bring the pH of the preparation up to pH 8.5. […]

[3] = ^99mTc labeled somatostatin peptide, (β)Dap-N2-Cys chelator, sum of percent areas of the two complex peaks
[4] = ^99mTc labeled somatostatin peptide, (β)Dap-N2-Cys chelator
[5] = (β)Dap-N2-Cys amine diamide thiol chelators, cysteine challenge
[6] = N1-N2-Cys triamide thiol chelators, 150 μg cysteine, room temperature, Initial (within 5 minutes)
[7] = N1-N2-Cys triamide thiol chelators, cysteine challenge

Substance: cyclo-[(N-Me)Phe-Tyr-(D)Trp-Lys-Val-Hcy]-CH2CO.(β)Dap-Lys-Cys-Lys-NH2 [-(β)Dap-Lys-Cys-Lys-NH2, reference compound]
- HPLC RCP 0.5 hours ([1]; ^99mTc labeled NeoTect analogs): 93.9%
- HPLC RCP 3 hours ([1]; ^99mTc labeled NeoTect analogs): 91.0%
- HPLC RCP 6 hours ([1]; ^99mTc labeled NeoTect analogs): 85.2%
- HPLC RCP 9 hours ([1]; ^99mTc labeled NeoTect analogs): 81.8%
- HPLC RCP 18 hrs. ([1]; ^99mTc labeled NeoTect analogs): 75.7%

Substance: cyclo-[Tyr-(D)Trp-Lys-Thr-Phe-(N-Me)Hcy]-CH2CO.(β)Dap-(α)Dap-Cys-Thr-Ser [—CH2NH2]
- HPLC RCP 0.5 hours [1, 3]: 88.5%
- HPLC RCP 3 hours [1, 4]: 86.6%
- HPLC RCP 6 hours [1, 4]: 84.1%
- HPLC RCP 9 hours [1, 4]: 82.6%

Substance: cyclo-[Tyr-(D)Trp-Lys-Thr-Phe-(N-Me)Hcy]-CH2CO.(β)Dap-Lys-Cys-Thr-Ser [—CH2CH2CH2CH2NH2]
- HPLC RCP 0.5 hours [1, 3]: 83.4%
- HPLC RCP 3 hours [1, 4]: 83.4%
- HPLC RCP 6 hours [1, 4]: 81.3%
- HPLC RCP 9 hours [1, 4]: 81.0%

Substance: cyclo-[Tyr-(D)Trp-Lys-Thr-Phe-(N-Me)Hcy]-CH2CO.(β)Dap-Gly-Cys-Thr-Ser [—H]
- HPLC RCP 0.5 hours [1, 3]: 89.7%
- HPLC RCP 3 hours [1, 4]: 84.8%
- HPLC RCP 6 hours [1, 4]: 83.7%
- HPLC RCP 9 hours [1, 4]: 80.2%

Substance: Ac-Tyr-Gly-Gly-(D)Orn-Cys-Ala.amide [GoC2]
- % Peptide Complexed to ^99mTc Initial [2, 6]: 94.3%
- % Peptide Complexed to ^99mTc 2 h [2, 7]: 91.1%
- % Peptide Complexed to ^99mTc 4 h [2, 7]: 89.1%
- % Peptide Complexed to ^99mTc 6 h [2, 7]: 89.2%
- % Peptide Complexed to ^99mTc 8 h [2, 7]: 89.0%
- % Peptide Complexed to ^99mTc 10 h [2, 7]: 87.2%
- % Peptide Complexed to ^99mTc 12 h [2, 7]: 86.9%

Substance: cyclo-[Tyr-(D)Trp-Lys-Thr-Phe-(N-Me)Hcy]-CH2CO.(β)Dap-Orn-Cys-Thr-Ser [—CH2CH2CH2NH2]
- HPLC RCP 0.5 hours [1, 3]: 97.0%
- HPLC RCP 3 hours [1, 4]: 95.2%
- HPLC RCP 6 hours [1, 4]: 94.9%
- HPLC RCP 9 hours [1, 4]: 94.9%

More lines, now with the values ahead:

- HPLC RCP 0.5 hours ([1]; ^99mTc labeled NeoTect analogs): 96.8%
- HPLC RCP 3 hours ([1]; ^99mTc labeled NeoTect analogs): 94.1%
- HPLC RCP 6 hours ([1]; ^99mTc labeled NeoTect analogs): 91.3%
- HPLC RCP 9 hours ([1]; ^99mTc labeled NeoTect analogs): 89.8%
- HPLC RCP 18 hrs. ([1]; ^99mTc labeled NeoTect analogs): 81.9%
Substance: cyclo-[(N-Me)Phe-Tyr-(D)Trp-Lys-Val-Hcy]-CH2CO.(β)Dap-(D)Orn-Cys-Lys-NH2 [-(β)Dap-(D)Orn-Cys-Lys-NH2]

- HPLC RCP 0.5 hours [1, 3]: 95.0%
- HPLC RCP 3 hours [1, 4]: 93.7%
- HPLC RCP 6 hours [1, 4]: 92.5%
- HPLC RCP 9 hours [1, 4]: 92.3%
Substance: cyclo-[Tyr-(D)Trp-Lys-Thr-Phe-(N-Me)Hcy]-CH2CO.(β)Dap-Met-Cys-Thr-Ser [—CH2CH2SCH3]

- HPLC RCP 0.5 hours [1, 3]: 94.3%
- HPLC RCP 3 hours [1, 4]: 91.6%
- HPLC RCP 6 hours [1, 4]: 90.7%
- HPLC RCP 9 hours [1, 4]: 89.2%
Substance: cyclo-[Tyr-(D)Trp-Lys-Thr-Phe-(N-Me)Hcy]-CH2CO.(β)Dap-Dab-Cys-Thr-Ser [—CH2CH2NH2]

- HPLC RCP 0.5 hours ([1]; ^99mTc labeled NeoTect analogs): 92.3%
- HPLC RCP 3 hours ([1]; ^99mTc labeled NeoTect analogs): 84.9%
- HPLC RCP 6 hours ([1]; ^99mTc labeled NeoTect analogs): 85.6%
- HPLC RCP 9 hours ([1]; ^99mTc labeled NeoTect analogs): 81.3%
- HPLC RCP 18 hrs. ([1]; ^99mTc labeled NeoTect analogs): 76.0%
Substance: cyclo-[(N-Me)Phe-Tyr-(D)Trp-Lys-Val-Hcy]-CH2CO.(β)Dap-Gly-Cys-Lys-NH2 [-(β)Dap-Gly-Cys-Lys-NH2]

- % Peptide Complexed to ^99mTc 2 h [2, 5]: 67.7%
- % Peptide Complexed to ^99mTc 4 h [2, 5]: 55.1%
- % Peptide Complexed to ^99mTc 6 h [2, 5]: 49.6%
- % Peptide Complexed to ^99mTc 8 h [2, 5]: 44.7%
- % Peptide Complexed to ^99mTc 10 h [2, 5]: 38.0%
- % Peptide Complexed to ^99mTc 12 h [2, 5]: 38.7%
- % Peptide Complexed to ^99mTc Initial ([2]; (β)Dap-N2-Cys amine diamide thiol chelators, cysteine challenge, Initial): 83.4%
Substance: Ac-Tyr-Gly-(β)Dap-Gly-Cys-Ala.amide [Dap.GC2]

- % Peptide Complexed to ^99mTc Initial [2, 6]: 98.2%
- % Peptide Complexed to ^99mTc 2 h [2, 7]: 93.8%
- % Peptide Complexed to ^99mTc 4 h [2, 7]: 90.0%
- % Peptide Complexed to ^99mTc 6 h [2, 7]: 86.1%
- % Peptide Complexed to ^99mTc 8 h [2, 7]: 80.0%
- % Peptide Complexed to ^99mTc 10 h [2, 7]: 78.1%
- % Peptide Complexed to ^99mTc 12 h [2, 7]: 88.6%
Substance: Ac-Tyr-Gly-Gly-Orn-Cys-Ala.amide [GOC]
